Patent publication US10851102B2, “Imidazole and triazole containing bicyclic compounds as JAK inhibitors” (THERAVANCE BIOPHARMA R&D IP, LLC, priority 2019, dated 2020)
Like-named read-outs stand apart in the source and are kept apart here.

How the values were obtained:
JAK1 = JAK1 (Homo sapiens (Human), UniProt P23458); assay: Biochemical JAK and Tyk2 kinase assays (LanthaScreen): JAK1; conditions: 1 h pre-incubation, ATP at Km; pIC50 converted to pKi by Cheng-Prusoff
Procedure: (§1) Assay 1: Biochemical JAK and Tyk2 Kinase Assays
(§2) A panel of four LanthaScreen JAK biochemical assays (JAK1, 2, 3 and Tyk2) were carried in a common kinase reaction buffer (50 mM HEPES, pH 7.5, 0.01% Brij-35, 10 mM MgCl2, and 1 mM EGTA). Recombinant GST-tagged JAK enzymes and a GFP-tagged STAT1 peptide substrate were obtained from Life Technologies.
(§3) Serially or discretely diluted compounds were pre-incubated with each of the four JAK enzymes and the substrate in white 384-well microplates (Corning) at ambient temperature for 1 h. ATP was subsequently added to initiate the kinase reactions in 10 μL total volume, with 1% DMSO. […] Kinase reactions were allowed to proceed for 1 hour at ambient temperature before a 10 μL preparation of EDTA (10 mM final concentration) and Tb-anti-pSTAT1 (pTyr701) antibody (Life Technologies, 2 nM final concentration) in TR-FRET dilution buffer (Life Technologies) was added. The plates were allowed to incubate at ambient temperature for 1 h before being read on the EnVision reader (Perkin Elmer). Emission ratio signals (520 nm/495 nm) were recorded and utilized to calculate the percent inhibition values based on DMSO and background controls.
(§4) For dose-response analysis, percent inhibition data were plotted vs. compound concentrations, and IC50 values were determined from a 4-parameter robust fit model with the Prism software (GraphPad Software). Results were expressed as pIC50 (negative logarithm of IC50) and subsequently converted to pKi (negative logarithm of dissociation constant, Ki) using the Cheng-Prusoff equation.

JAK3 = JAK3 (Homo sapiens (Human), UniProt P52333); assay: Biochemical JAK and Tyk2 kinase assays (LanthaScreen): JAK3; conditions: for Ki: read-out: JAK 3 (pKi) (converted); for JAK3 (pKi)-JAK1 (pKi): difference of pKi values, selectivity JAK3 over JAK1
Sequence of JAK3 (P52333 whole entry): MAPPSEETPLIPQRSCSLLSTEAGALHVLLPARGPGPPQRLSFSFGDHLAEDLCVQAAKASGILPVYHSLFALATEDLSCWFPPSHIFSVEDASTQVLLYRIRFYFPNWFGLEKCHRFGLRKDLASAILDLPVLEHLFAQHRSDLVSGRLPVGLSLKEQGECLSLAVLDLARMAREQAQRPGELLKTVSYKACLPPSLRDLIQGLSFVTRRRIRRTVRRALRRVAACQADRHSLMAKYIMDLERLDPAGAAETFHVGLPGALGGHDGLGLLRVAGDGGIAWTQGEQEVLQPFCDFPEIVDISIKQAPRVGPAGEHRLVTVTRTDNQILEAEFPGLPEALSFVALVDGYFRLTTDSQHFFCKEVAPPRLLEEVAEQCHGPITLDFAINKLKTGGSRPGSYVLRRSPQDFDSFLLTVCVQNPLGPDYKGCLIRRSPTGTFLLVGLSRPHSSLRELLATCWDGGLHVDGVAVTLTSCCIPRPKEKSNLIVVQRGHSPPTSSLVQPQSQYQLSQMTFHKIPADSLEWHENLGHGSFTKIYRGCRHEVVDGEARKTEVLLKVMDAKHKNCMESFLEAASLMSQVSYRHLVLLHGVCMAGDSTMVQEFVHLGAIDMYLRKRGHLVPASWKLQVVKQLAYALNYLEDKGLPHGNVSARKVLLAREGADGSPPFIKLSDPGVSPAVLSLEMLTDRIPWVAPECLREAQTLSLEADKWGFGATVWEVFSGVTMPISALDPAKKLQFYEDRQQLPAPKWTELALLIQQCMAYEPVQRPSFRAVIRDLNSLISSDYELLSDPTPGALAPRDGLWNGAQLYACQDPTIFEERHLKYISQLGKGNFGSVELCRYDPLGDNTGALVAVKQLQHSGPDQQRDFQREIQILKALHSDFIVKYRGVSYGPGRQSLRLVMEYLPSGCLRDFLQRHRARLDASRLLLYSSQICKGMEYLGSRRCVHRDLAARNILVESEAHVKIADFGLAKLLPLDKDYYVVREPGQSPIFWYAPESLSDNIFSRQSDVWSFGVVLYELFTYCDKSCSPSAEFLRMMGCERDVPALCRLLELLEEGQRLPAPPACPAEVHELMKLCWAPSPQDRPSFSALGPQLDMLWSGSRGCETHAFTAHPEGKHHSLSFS
Procedure: as §1, §2, §3, §4

[1] = system: IL-2 stimulated pSTAT5 in Tall-1 T cells (JAK3); assay: Cellular JAK3 potency assay: inhibition of IL-2 stimulated pSTAT5 in Tall-1 T cells; assay type: cell-based; conditions: IL-2 300 ng/ml, pSTAT5 AlphaLisa, Tall-1 human T cell line; read-out: Tall-1 (pIC50) (converted)
Procedure: Assay 2: Cellular JAK3 Potency Assay: Inhibition of IL-2 Stimulated pSTAT5 in Tall-1 T Cells
The potency of test compounds for inhibition of interleukin-2 (IL-2) stimulated STATS phosphorylation was measured in the Tall-1 human T cell line (DSMZ) using AlphaLisa. Because IL-2 signals through JAK3, this assay provides a measure of JAK3 cellular potency.
Phosphorylated STATS was measured via the AlphaLISA SureFire Ultra pSTAT5 (Tyr694/699) kit (PerkinElmer).
Human T cells from the Tall-1 cell line were cultured in a 37° C., 5% CO2 humidified incubator in RPMI (Life Technologies) supplemented with 15% Heat Inactivated Fetal Bovine Serum (FBS, Life Technologies), 2 mM Glutamax (Life Technologies), 25 mM HEPES (Life Technologies) and 1× Pen/Strep (Life Technologies). Compounds were serially diluted in DMSO and dispensed acoustically to empty wells. Assay media (phenol red-free DMEM (Life Technologies) supplemented with 10% FBS (ATCC)) was dispensed (4 μL/well) and plates shaken at 900 rpm for 10 mins. Cells were seeded at 45,000 cells/well in assay media (4 μL/well), and incubated at 37° C., 5% CO2 for 1 hour, followed by the addition of IL-2 (R&D Systems; final concentration 300 ng/ml) in pre-warmed assay media ([…]) for 30 minutes. After cytokine stimulation, cells were lysed with 6 ul of 3× AlphaLisa Lysis Buffer (PerkinElmer) containing 1× PhosStop and Complete tablets (Roche). The lysate was shaken at 900 rpm for 10 minutes at room temperature (RT). Phosphorylated STATS was measured via the pSTAT5 AlphaLisa kit (PerkinElmer). Freshly prepared acceptor bead mixture was dispensed onto lysate (5 μL) under green filtered <100 lux light. Plates were shaken at 900 rpm for 2 mins, briefly spun down, and incubated for 2 hrs at RT in the dark. Donor beads were dispensed (5 μL) under green filtered <100 lux light. Plates were shaken at 900 rpm for 2 minutes, briefly spun down, and incubated overnight at RT in the dark. Luminescence was measured with excitation at 689 nm and emission at 570 nm using an EnVision plate reader (PerkinElmer) under green filtered <100 lux light.
To determine the inhibitory potency of test compounds in response to IL-2, the average emission intensity of beads bound to pSTAT5 was measured in a human T cell line. IC50 values were determined from analysis of the inhibition curves of signal intensity versus compound concentration. Data are expressed as pIC50 (negative decadic logarithm IC50) values (mean±standard deviation).

[2] = 1 h pre-incubation, ATP at Km, pIC50 converted to pKi by Cheng-Prusoff

Sequence of JAK1 (P23458 whole entry): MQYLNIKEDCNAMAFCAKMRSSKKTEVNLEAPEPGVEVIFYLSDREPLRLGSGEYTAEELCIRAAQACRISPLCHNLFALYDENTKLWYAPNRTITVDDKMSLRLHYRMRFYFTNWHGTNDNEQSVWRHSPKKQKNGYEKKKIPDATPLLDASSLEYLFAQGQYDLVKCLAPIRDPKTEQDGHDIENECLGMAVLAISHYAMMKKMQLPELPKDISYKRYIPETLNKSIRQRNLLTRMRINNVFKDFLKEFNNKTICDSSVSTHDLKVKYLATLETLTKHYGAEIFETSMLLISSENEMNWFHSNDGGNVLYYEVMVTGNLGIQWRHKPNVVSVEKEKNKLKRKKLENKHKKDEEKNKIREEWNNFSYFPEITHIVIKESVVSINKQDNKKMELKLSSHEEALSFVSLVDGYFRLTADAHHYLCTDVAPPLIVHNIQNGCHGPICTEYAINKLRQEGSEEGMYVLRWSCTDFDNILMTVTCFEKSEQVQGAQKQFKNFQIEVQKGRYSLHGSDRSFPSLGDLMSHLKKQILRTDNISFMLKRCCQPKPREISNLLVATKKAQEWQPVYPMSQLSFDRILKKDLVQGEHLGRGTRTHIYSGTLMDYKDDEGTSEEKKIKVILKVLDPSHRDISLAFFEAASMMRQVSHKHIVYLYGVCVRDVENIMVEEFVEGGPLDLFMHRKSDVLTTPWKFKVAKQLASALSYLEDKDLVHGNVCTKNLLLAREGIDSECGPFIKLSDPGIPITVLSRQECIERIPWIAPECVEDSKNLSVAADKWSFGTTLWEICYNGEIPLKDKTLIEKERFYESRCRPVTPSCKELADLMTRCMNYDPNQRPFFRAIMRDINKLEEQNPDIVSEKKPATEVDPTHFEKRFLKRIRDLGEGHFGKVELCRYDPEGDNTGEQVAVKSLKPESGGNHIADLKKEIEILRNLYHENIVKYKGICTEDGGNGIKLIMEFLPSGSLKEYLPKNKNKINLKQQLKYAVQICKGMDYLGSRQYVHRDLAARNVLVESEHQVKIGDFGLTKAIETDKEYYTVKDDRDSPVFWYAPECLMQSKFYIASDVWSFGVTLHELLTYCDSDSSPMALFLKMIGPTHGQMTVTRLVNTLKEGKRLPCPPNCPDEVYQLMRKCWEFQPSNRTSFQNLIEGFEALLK

| Structure (SMILES) | JAK 1 (pKi) (JAK1) | Ki (JAK3; [2]) | JAK3 (pKi)-JAK1 (pKi) (JAK3) | IC50 [1] | Ki (JAK1) | JAK 3 (pKi) (JAK3; [2]) | Ki (JAK3) |
| --- | --- | --- | --- | --- | --- | --- | --- |
| C=CC(=O)N1[C@H](C)C[C@H](Oc2cc(-c3ccc(O)cc3)cn3cncc23)C[C@@H]1C [Example 40] | E (E represents a pKi value of 7 or below (Ki of 100 nM or above)) | 1 to 10 nM | B (B represents a value of 2.3 to 3) | 200 to 1000 nM | – | – | – |
| CCc1cc(O)c(F)cc1-c1cc(O[C@H]2CCCN(C(=O)/C=C/CN(C)C)C2)c2cncn2c1 [Example 18] | E (E represents a pKi value of 7 or below (Ki of 100 nM or above)) | 0.1 to 1 nM | B (B represents a value of 2.3 to 3) | – | – | – | – |
| C=CC(=O)N1CCC[C@H](Nc2cc(-c3ccc(O)cc3)cn3cncc23)C1 [Example 51] | E (E represents a pKi value of 7 or below (Ki of 100 nM or above)) | 1 to 10 nM | B (B represents a value of 2.3 to 3) | – | – | – | – |
| C=CC(=O)N1CC2(CCC2Oc2cc(-c3cc(F)c(O)cc3CC)cn3cncc23)C1 (stereo not drawn) [Example 46] | E (E represents a pKi value of 7 or below (Ki of 100 nM or above)) | 0.1 to 1 nM | B (B represents a value of 2.3 to 3) | 31.6 to 200 nM | – | – | – |
| C=CC(=O)N1[C@@H]2CC[C@H]1C[C@H](Oc1cc(-c3cc(F)c(O)cc3CC)cn3cncc13)C2 [Example 48] | – | – | A (A represents a value of 3 or above) | ≤ 31.6 nM | 10 to 100 nM | A (A represents a pKi value≥10 (Ki≤0.1 nM)) | – |
| CN(C)C/C=C/C(=O)N1CC(COc2cc(-c3ccc(O)c(F)c3)cn3cncc23)C1 [Example 22] | E (E represents a pKi value of 7 or below (Ki of 100 nM or above)) | 0.1 to 1 nM | A (A represents a value of 3 or above) | 200 to 1000 nM | – | – | – |
| C=CC(=O)N1CC(COc2cc(-c3cc(C)c(O)c(C)c3)cn3cncc23)C1 [Example 35] | E (E represents a pKi value of 7 or below (Ki of 100 nM or above)) | 0.1 to 1 nM | A (A represents a value of 3 or above) | 200 to 1000 nM | – | – | – |
| C=CC(=O)N1CC(COc2cc(-c3ccc(O)cc3C(F)(F)F)cn3cncc23)C1 [Example 42] | E (E represents a pKi value of 7 or below (Ki of 100 nM or above)) | 0.1 to 1 nM | A (A represents a value of 3 or above) | 200 to 1000 nM | – | – | – |
| C=CC(=O)N1[C@@H]2CC[C@H]1C[C@@H](Oc1cc(-c3ccc(O)cc3)cn3cncc13)C2 [Example 36] | E (E represents a pKi value of 7 or below (Ki of 100 nM or above)) | – | A (A represents a value of 3 or above) | 31.6 to 200 nM | – | A (A represents a pKi value≥10 (Ki≤0.1 nM)) | – |
| C=CC(=O)N1CC[C@H](Oc2cc(-c3ccc(O)cc3)cn3cncc23)C[C@@H]1C [Example 38] | E (E represents a pKi value of 7 or below (Ki of 100 nM or above)) | 0.1 to 1 nM | A (A represents a value of 3 or above) | 31.6 to 200 nM | – | – | – |
| C=CC(=O)N1[C@@H]2CC[C@H]1C[C@H](Oc1cc(-c3ccc(O)cc3)cn3cncc13)C2 [Example 10, 1-((1R,3S,5S)-3-((6-(4-hydroxyphenyl)imidazo[1,5-a]pyridin-8-yl)oxy)-8-azabicyclo[3.2.1]octan-8-yl)prop-2-en-1-one] | – | – | – | 31.6 to 200 nM | – | – | – |
| C=CC(=O)N1CC(COc2cc(-c3cc(C)c(O)cc3C)cn3cncc23)C1 [Example 43] | E (E represents a pKi value of 7 or below (Ki of 100 nM or above)) | 0.1 to 1 nM | A (A represents a value of 3 or above) | 31.6 to 200 nM | – | – | – |
| CCc1cc(O)ccc1-c1cc(OCC2CN(C(=O)/C=C/CN(C)C)C2)c2cncn2c1 [Example 25] | E (E represents a pKi value of 7 or below (Ki of 100 nM or above)) | 0.1 to 1 nM | A (A represents a value of 3 or above) | 200 to 1000 nM | – | – | – |
| C=CC(=O)N1CC(CNc2cc(-c3ccc(O)cc3)cn3cncc23)C1 [Example 52] | E (E represents a pKi value of 7 or below (Ki of 100 nM or above)) | 1 to 10 nM | B (B represents a value of 2.3 to 3) | – | – | – | – |
| C=CC(=O)N1CCC(Oc2cc(-c3cc(F)c(O)cc3CC)cn3cncc23)C(F)(F)C1 (stereo not drawn) [Example 49] | – | – | C (C represents a value of 1.8 to 2.3) | ≤ 31.6 nM | 10 to 100 nM | – | 0.1 nM |
| CN(C)C/C=C/C(=O)N1CC(COc2cc(-c3ccc(O)cc3)cn3cncc23)C1 [Example 19] | E (E represents a pKi value of 7 or below (Ki of 100 nM or above)) | 0.1 to 1 nM | A (A represents a value of 3 or above) | 200 to 1000 nM | – | – | – |
| C=CC(=O)N1CCC(Oc2cc(-c3cc(F)c(O)cc3CC)cn3cncc23)CC1 [Example 47] | – | – | B (B represents a value of 2.3 to 3) | ≤ 31.6 nM | 10 to 100 nM | A (A represents a pKi value≥10 (Ki≤0.1 nM)) | – |
| C=CC(=O)N1CC(COc2cc(-c3ccc(O)cc3)cn3cnnc23)C1 [Example 5, 1-(3-(((6-(4-hydroxyphenyl)-[1,2,4]triazolo[4,3-a]pyridin-8-yl)oxy)methyl)azetidin-1-yl)prop-2-en-1-one] | E (E represents a pKi value of 7 or below (Ki of 100 nM or above)) | – | A (A represents a value of 3 or above) | 200 to 1000 nM | – | A (A represents a pKi value≥10 (Ki≤0.1 nM)) | – |
| C=CC(=O)N1CCC(N(C)c2cc(-c3ccc(O)cc3)cn3cncc23)CC1 [Example 17] | E (E represents a pKi value of 7 or below (Ki of 100 nM or above)) | – | B (B represents a value of 2.3 to 3) | – | – | C (C represents a pKi value between 8 and 9 (Ki between 10 nM and 1 nM)) | – |
| C=CC(=O)N1CC(COc2cc(-c3ccc(O)cc3OC)cn3cncc23)C1 [Example 45] | E (E represents a pKi value of 7 or below (Ki of 100 nM or above)) | 0.1 to 1 nM | A (A represents a value of 3 or above) | 200 to 1000 nM | – | – | – |
| C=CC(=O)N1[C@@H]2CC[C@H]1C[C@H](Nc1cc(-c3ccc(O)cc3)cn3cncc13)C2 [Example 50] | E (E represents a pKi value of 7 or below (Ki of 100 nM or above)) | 1 to 10 nM | B (B represents a value of 2.3 to 3) | – | – | – | – |
| C=CC(=O)N1CC(CSc2cc(-c3ccc(O)cc3)cn3cncc23)C1 [Example 29] | E (E represents a pKi value of 7 or below (Ki of 100 nM or above)) | 0.1 to 1 nM | A (A represents a value of 3 or above) | 200 to 1000 nM | – | – | – |
| C=CC(=O)N1CC(COc2cc(-c3cc(F)c(O)c(F)c3)cn3cncc23)C1 [Example 32] | E (E represents a pKi value of 7 or below (Ki of 100 nM or above)) | 0.1 to 1 nM | A (A represents a value of 3 or above) | 200 to 1000 nM | – | – | – |
